The results in this text go back to patent publication US20140094366A1, “SYNERGISTIC WEED CONTROL FROM APPLICATIONS OF AMINOCYCLOPYRACHLOR AND FLUROXYPYR” (Dow AgroSciences LLC, priority 2012, published 2014).

What all share (assay): Field trial, post-emergence foliar weed control
What all share (type): in vivo

The subject of experiment [1] is buckhorn plantain (Plantago lanceolata, PLALA). As to conditions: 27 DAYS, 18 g ae/ha, alone. The source says: (§1) The (a) aminocyclopyrachloror an agriculturally acceptable salt or ester thereof is mixed with or applied in combination with (b) fluoroxypyr or an agriculturally acceptable salt or ester thereof in an amount sufficient to induce a synergistic herbicidal effect. […] As described in the Herbicide Handbook of the Weed Science Society of America, Ninth Edition, 2007, p. 429, “‘synergism’ [is] an interaction of two or more factors such that the effect when combined is greater than the predicted effect based on the response to each factor applied separately.” Synergistic in the herbicide context can mean that the use of (a) and (b) as defined above results in an increased weed control effect compared to the weed control effects that are possible with the use of (a) or (b) alone. In some embodiments, the damage or injury to the undesired vegetation caused by the compositions and methods disclosed herein is evaluated using a scale from 0% to 100%, when compared with the untreated control vegetation, wherein 0% indicates no damage to the undesired vegetation and 100% indicates complete destruction of the undesired vegetation. […] 22 (1967)
(§2) Field trials were conducted with applications made to established grassland with naturally occurring weed populations, or applications were made to bare ground with naturally occurring weed populations. The target plants were treated with postemergence foliar applications after they had reached at least 3-4 leaves or at least 2-5 inches in height. All treatments were applied using a randomized complete block trial design, with 3-4 replications per treatment.
(§3) Treatments consisted of aminocyclopyrachlor in acid form and fluoroxypyr-meptyl, each in water and applied alone or in combination. Spray solutions were prepared using an appropriate amount of dilution to form a 2 liter (L) aqueous spray solution with active ingredients in single and two way combinations. Formulated compounds were applied to the plant material with a backpack sprayer equipped with 8003 or Turbojet nozzles calibrated to deliver 187 liters per hectare (L/ha) to 400 L/ha at a spray height of 18-20 inches (43-50 centimeters (cm)) above average plant canopy or ground.
(§4) The treated plants were shepherd's purse (Capsella bursa-pastoris, CAPBP), common fiddleneck (Amsinckia menziesii, AMSIN), wild oat (Avena fatua, AVEFA), cat's ear dandelion (Hypochaeris radicata, HRYRA), yellow star thistle (Centaurea solstitialis, CENSO), common guava (Psidium guajava, PSIGU), buckhorn plantain (Plantago lanceolata, PLALA), and calvary clover (Medicago arabica, MEDAB). The treated plots and control plots were rated blind at various intervals after application. Ratings were based on a scale of 0-100%, as discussed above, wherein 0% indicates no damage to the undesired vegetation and 100% indicates complete destruction of the undesired vegetation.
(§5) Colby's equation was used to determine the herbicidal effects expected from the mixtures, as described above. The results were measured at 11 days, 17 days, 24 days, 27 days, 37 days, 70 days, 76 days, and 88 days after the first application of the compositions. […] The herbicide tank mix combinations tested, application rates and ratios employed, plant species tested, and results are given below.

Experiment [2] has as its system shepherd's purse (Capsella bursa-pastoris, CAPBP). Particulars: alone.
From the text: as §1, §2, §3, §4, §5

In experiment [3] the test system is common guava (Psidium guajava, PSIGU). As to conditions: alone.
From the text: as §1, §2, §3, §4, §5

For experiment [4], the system named is yellow star thistle (Centaurea solstitialis, CENSO). Particulars: 37 DAYS, alone.
From the text: as §1, §2, §3, §4, §5

Experiment [5] concerns wild oat (Avena fatua, AVEFA). As to conditions: 11 DAYS, alone.
From the text: as §1, §2, §3, §4, §5

The test system of experiment [6] is cat's ear dandelion (Hypochaeris radicata, HRYRA). As to conditions: alone.
From the text: as §1, §2, §3, §4, §5

Experiment [7] has as its system calvary clover (Medicago arabica, MEDAB). As to conditions: 27 DAYS, alone.
From the text: as §1, §2, §3, §4, §5

In experiment [8] the test system is common fiddleneck (Amsinckia menziesii, AMSIN). Particulars: alone; for Fluroxypyr-meptyl Mean % weed control: 70 g ae/ha; for Aminocyclopyrachlor Mean % weed control: 18 g ae/ha.
From the text: as §1, §2, §3, §4, §5

With `CCCCCCC(C)OC(=O)COc1nc(F)c(Cl)c(N)c1Cl` (stereo not drawn) [Fluroxypyr-meptyl], the “Fluroxypyr-meptyl Mean % weed control” value in experiment [1] was 10%; in experiment [2] (17 DAYS, 35 g ae/ha), 6.67%; in experiment [2] (17 DAYS, 70 g ae/ha), 13.33%; in experiment [2] (24 DAYS, 70 g ae/ha), 8.33%; in experiment [3] (76 DAYS, 80 g ae/ha) it was 4.8%; in experiment [3] (76 DAYS, 240 g ae/ha), 16.3%. The “Fluroxypyr-meptyl Mean % weed control” value in experiment [3] (88 DAYS, 80 g ae/ha) was found to be 4.8%; in experiment [3] (88 DAYS, 240 g ae/ha) it was 16.3%; in experiment [4] (70 g ae/ha) it was 22.5%; in experiment [5] (70 g ae/ha), 1%; in experiment [6] (11 DAYS, 70 g ae/ha) it was 0%; in experiment [6] (37 DAYS, 18 g ae/ha), 0.5%. The “Fluroxypyr-meptyl Mean % weed control” value in experiment [6] (37 DAYS, 70 g ae/ha) is given as 3%; in experiment [6] (70 DAYS, 70 g ae/ha), 1.75%; in experiment [7] (18 g ae/ha), 11.25%; in experiment [7] (35 g ae/ha), 7.5%; in experiment [7] (70 g ae/ha), 47.5%; in experiment [8] (17 DAYS) it was 3.33%. Further, in experiment [8] (24 DAYS), the “Fluroxypyr-meptyl Mean % weed control” value is given as 3.33%.

On to `Nc1nc(C2CC2)nc(C(=O)O)c1Cl` [Aminocyclopyrachlor, 6-amino-5-chloro-2-cyclopropylpyrimidine-4-carboxylic acid], for which the “Aminocyclopyrachlor Mean % weed control” value in experiment [1] stood at 22.5%; in experiment [2] (17 DAYS, 18 g ae/ha), 23.33%; in experiment [2] (17 DAYS, 35 g ae/ha), 50%; in experiment [2] (24 DAYS, 35 g ae/ha) it was 50%; in experiment [3] (76 DAYS, 50 g ae/ha), 7.5%; in experiment [3] (76 DAYS, 150 g ae/ha), 48.3%. In addition, the “Aminocyclopyrachlor Mean % weed control” value turned out to be 7.5% in experiment [3] (88 DAYS, 50 g ae/ha); 57.5% in experiment [3] (88 DAYS, 150 g ae/ha); 57.5% in experiment [4] (18 g ae/ha); 0% in experiment [5] (35 g ae/ha); 1.75% in experiment [6] (11 DAYS, 35 g ae/ha); 28.75% in experiment [6] (37 DAYS, 18 g ae/ha). Also, the “Aminocyclopyrachlor Mean % weed control” value was determined as 36.25% in experiment [6] (70 DAYS, 18 g ae/ha); 27.5% in experiment [7] (18 g ae/ha); 47.5% in experiment [7] (35 g ae/ha); 0% in experiment [8] (17 DAYS); 0% in experiment [8] (24 DAYS).
